Experimental data published in patent US20140127231A1, “p38 MAPK Pathway Inhibitors as Female-Specific Therapeutics” (UNIVERSITY OF VERMONT, priority 2012, published 2014).
Entries after “also recorded” stand apart in the source; their conditions may differ.

System: Naïve CD4+ T cells cultured under TH17 polarizing conditions
Assay: In vitro TH17 differentiation of CD4+ T cells, IL-17 production
Type: cell-based, mice
Settings: 3 days
Method: Naïve CD4+ T cells were purified by negative selection and cultured under TH17 polarizing conditions for 3 days in the presence of SB20350 (5 μM if not otherwise indicated). IL-17 secretion was analyzed by ELISA (FIG. 3A). Relative IL-17 mRNA was assessed by qRT-PCR (FIG. 3B). IL-17 levels were assessed using intracellular staining and flow cytometry (FIG. 3C).
Total CD4 T cells were isolated from spleen and lymph nodes as previously described (Noubade et al., 2007, J Clin Invest., 117(11):3507-3518), by negative selection for CD8-, MHC class II-, NK1.1- and CD11b-positive cells using magnetic beads from QIAGEN. For FACS sorting, negatively selected CD4 T cells were stained with anti-TCRβ-allophycocyanin and anti-CD4-Texas Red (Invitrogen), and sorted using a FACSAria cell sorting system (BD Biosciences). Th17 CD4 T cells were generated by activating total CD4 T cells (1×10^6 cells/mL) in RPMI containing 10% FBS (Hyclone), with plate bound anti-CD3 (5 μg/mL) and soluble anti-CD28 (1 μg/mL) mAbs from BD Pharmingen in the presence of 1 ng/mL TGFβ (PeproTech Inc), 30 ng/mL IL-6 (R&D Systems), 10 μg/mL anti-IFNγ, and 10 μg/mL anti-IL-4 mAbs. […]
For intracellular cytokine staining, either FACS-sorted or total CD4 T cells polarized to Th17 cells in the absence or the presence of 5 μM SB203580 were stimulated with 5 ng/mL PMA, 250 ng/mL ionomycin, and 2 μM monensin (Sigma-Aldrich) for the last 4 hours of culture. […] Cells were collected using a LSR II cytometer (BD Biosciences) and analyzed using FlowJo software (TreeStar Inc).
Total RNA was extracted from CD4 T cells using RNeasy RNA isolation reagent (QIAGEN) as recommended by the manufacturer. The generated cDNA was used in quantitative real-time PCR using the assay-on-demand (AOD) TaqMan probe and primers for IL-17A and β2-microglobulin (Applied Biosystems). β2-microglobulin was used as a reference gene and relative mRNA levels were calculated using the comparative CT method.
IL-17 production was analyzed by various methods including ELISA, qRT-PCR, and intracellular staining and flow cytometry.

Compound: C[S+]([O-])c1ccc(-c2nc(-c3ccncc3)c(-c3ccc(F)cc3)[nH]2)cc1 (stereo not drawn) [SB203580]
- Cellular IL-17 protein levels (intracellular staining, flow cytometry) (5 μM): decreased
- IL-17 mRNA levels (qRT-PCR) (5 μM): not significantly affected
- IL-17 production / secretion (ELISA) (inhibitor present, listed as SB): suppressed IL-17 production in a dose-dependent manner; also recorded: decreased; also recorded: reduced IL-17 production in vitro; also recorded: inhibits IL-17 production at a post-transcriptional level
